Test results as given in PMC7367873, “Dissecting the sequence determinants for dephosphorylation by the catalytic subunits of phosphatases PP1 and PP2A” (Nature Communications, 2020).
Blank lines part the entries; values can stand above or below the substance they belong to.

Tests used:
GFP-14-3-3β = GFP-14-3-3β co-IP with LC-MS/MS, untreated GFP-14-3-3β versus GFP control (14-3-3 interactome); assay type: binding, human
Description: (§1) HeLa Kyoto cells expressing transiently transfected pEGFP(C1)-14-3-3β or pEGFP(C1) control plasmid, were incubated with 20 nM Calyculin A (# 9902 S, Cell Signaling Technology) for 12 min. Cells were washed twice on ice with cold PBS and after addition of 500 µL lysis buffer (100 mM NaCl, 10 mM Tris, 0.1% IGEPAL, 1 mM EDTA, 1 mM EGTA, 20 nM Calyculin A, 1x cOmplete Mini protease inhibitor cocktail (Sigma), 1 mM DTT, 1 mM MnCl2) cells were scraped from plates, lysed by 10 pushes through an injection needle (21 G, BD) and the insoluble fraction was pelleted by centrifugation (10 min, 10^4 rcf, 4 °C). Supernatants were then subjected to incubation with 1 µM recombinant phosphatase or buffer for 1 h at 30 °C. Next, we subjected samples to immunoprecipitation using α-GFP nanobodies covalently coupled to agarose beads (2 h, 4 °C, obtained from the EMBL PEPcore Core Facility). Beads were then washed three times with lysis buffer and samples were eluted in 1x LDS sample buffer (Thermo Fisher Scientific) by heating to 70 °C for 10 min.
(§2) The samples were then reduced with 25 mM dithiothreitol (10 min at 70 °C) and alkylated with 55 mM chloroacetamide (room temperature, 30 min, in the dark). Proteins were run on a precast 4–12% NuPAGE gel (ThermoFisher Scientific) for about 1 cm to concentrate the sample prior to in-gel tryptic digestion, which was performed according to the standard procedures. The peptides obtained were dried to completeness and resuspended in 12 µL of buffer A (0.1% FA), and 5 µL of sample were injected per MS measurement. The experiment was carried out in three independent replicates.
(§3) The samples were analyzed by LC-MS/MS on a Dionex Ultimate 3000 nano-HPLC coupled online to a Fusion Lumos Tribrid mass spectrometer (Thermo Fisher Scientific). Peptides were delivered to a trap column (75 µm × 2 cm, packed in-house with 5 µm C18 resin; Reprosil PUR AQ, Dr. Maisch) and washed using 0.1% FA at a flow rate of 5 µL/min for 10 min. Subsequently, peptides were transferred to an analytical column (75 µm × 45 cm, packed in-house with 3 µm C18 resin; Reprosil Gold) applying a flow rate of 300 nL/min and separated using a 60 min linear gradient from 4% to 32% LC solvent B (0.1% FA, 5% DMSO in ACN) in LC solvent A (0.1% FA in 5% DMSO). The eluate from the analytical column was sprayed via a stainless steel emitter (Thermo Fisher Scientific) at a source voltage of 2.1 kV into the mass spectrometer. The transfer capillary was heated to 275 °C. The Fusion Lumos was operated in positive ionization mode and data-dependent acquisition (DDA), automatically switching between MS1 and MS2 spectrum acquisition. Full scan MS1 spectra were recorded in the Orbitrap from 360 to 1300 m/z at a resolution of 60k (automatic gain control (AGC) target value of 4e5 charges, maximum injection time (maxIT) of 50 ms). Up to 20 peptide precursors were isolated (isolation window, 1.7 m/z; maximum injection time, 25 ms; and AGC value, 1e5), fragmented by high-energy collision-induced dissociation (HCD) using 30% normalized collision energy (NCE), and analyzed at a resolution of 15k in the Orbitrap. Precursor ions that were singly charged, unassigned, or with charge states >6+ were excluded. The dynamic exclusion duration of fragmented precursor ions was 20 s.
(§4) Peptide and protein identification and LFQ were performed using MaxQuant software (version 1.6.1.0)[64] by searching the data against all canonical protein sequences as annotated in the Swissprot reference database (human proteins only, 20193 entries, downloaded 22 March 2016, internally annotated with PFAM domains) using the embedded search engine Andromeda[65]. The MaxQuant search was performed using two variable modifications; oxidation of methionine and N-terminal protein acetylation. Carbamidomethylation on cysteines was specified as a fixed modification. Trypsin (Trypsin/P) was specified as the proteolytic enzyme with up to two allowed missed cleavage sites.

[1] = tested on: GFP-14-3-3β and its binding proteins; assay: GFP-14-3-3β co-IP with LC-MS/MS label-free quantification, untreated versus PP1c-treated; set-up: species or system human
Description: as §1, §2, §3, §4

[2] = pairwise comparison untreated GFP-14-3-3β vs GFP, student's t-test, 3 replicates each, LC-MS/MS label-free quantification
[3] = pairwise comparison PP1 vs untreated, student's t-test, 3 replicates each, LC-MS/MS label-free quantification
[4] = log2 difference, pairwise comparison untreated vs GFP, label-free quantification, 3 replicates each
[5] = log2 difference, pairwise comparison PP1 vs untreated, label-free quantification, 3 replicates each
[6] = GFP-14-3-3β co-IP LC-MS/MS, untreated vs GFP, student's t-test, label-free quantification, 3 replicates each
[7] = GFP-14-3-3β co-IP LC-MS/MS, PP1 vs untreated, student's t-test, label-free quantification, 3 replicates each
[8] = pairwise comparison untreated vs GFP
[9] = pairwise comparison PP1 vs untreated
[10] = untreated vs GFP, LFQ intensities, replicates 1-3
[11] = PP1 vs untreated, LFQ intensities, replicates 1-3
[12] = untreated vs GFP, LFQ intensities, 3 replicates each
[13] = PP1 vs untreated, LFQ intensities, 3 replicates each

Substance: DENND4C
Difference (log2), untreated vs GFP (GFP-14-3-3β; [2]): 3.4091 log2
Difference (log2), PP1 vs untreated [1, 3]: -4.253 log2

Substance: YWHAG
Difference (log2), untreated vs GFP (GFP-14-3-3β; [10]): 8.569 log2
Difference (log2), PP1 vs untreated [1, 11]: -1.2523 log2

Substance: SLC7A5
Difference (log2), untreated vs GFP (GFP-14-3-3β; [6]): 0.7726 log2
Difference (log2), PP1 vs untreated [1, 7]: -0.2534 log2

Substance: ANXA2;ANXA2P2
Difference (log2), untreated vs GFP (GFP-14-3-3β; [8]): -0.03703 log2
Difference (log2), PP1 vs untreated [1, 9]: 0.07284 log2

Substance: MARK3
Difference (log2), untreated vs GFP (GFP-14-3-3β; [2]): 4.732 log2
Difference (log2), PP1 vs untreated [1, 3]: -2.088 log2

Substance: NPM1
Difference (log2), untreated vs GFP (GFP-14-3-3β; [8]): 0.2613 log2
Difference (log2), PP1 vs untreated [1, 9]: 0.1234 log2

Substance: ELAVL1
Difference (log2), untreated vs GFP (GFP-14-3-3β; [12]): 3.578 log2
Difference (log2), PP1 vs untreated [1, 13]: 0.612 log2

Substance: NONO
Difference (log2), untreated vs GFP (GFP-14-3-3β; [10]): 0.331 log2
Difference (log2), PP1 vs untreated [1, 11]: -0.8439 log2

Substance: DNAJA2
Difference (log2), untreated vs GFP (GFP-14-3-3β; [12]): -1.855 log2
Difference (log2), PP1 vs untreated [1, 13]: 0.6145 log2

Substance: SRGAP2
Difference (log2), untreated vs GFP (GFP-14-3-3β; [2]): 5.241 log2
Difference (log2), PP1 vs untreated [1, 3]: -5.683 log2

Substance: WWC2
Difference (log2), untreated vs GFP (GFP-14-3-3β; [2]): 4.409 log2
Difference (log2), PP1 vs untreated [1, 3]: -3.571 log2

Substance: RICTOR
Difference (log2), untreated vs GFP (GFP-14-3-3β; [10]): 3.3487 log2
Difference (log2), PP1 vs untreated [1, 11]: -0.7631 log2

Substance: VIM
Difference (log2), untreated vs GFP (GFP-14-3-3β; [8]): 0.4109 log2
Difference (log2), PP1 vs untreated [1, 9]: 0.1241 log2

Substance: SHROOM3
Difference (log2), untreated vs GFP (GFP-14-3-3β; [2]): 4.814 log2
Difference (log2), PP1 vs untreated [1, 3]: -2.387 log2

Substance: PABPC1
Difference (log2), untreated vs GFP (GFP-14-3-3β; [8]): 0.5949 log2
Difference (log2), PP1 vs untreated [1, 9]: 0.26 log2

Substance: PPIA
Difference (log2), untreated vs GFP (GFP-14-3-3β; [10]): -0.5989 log2
Difference (log2), PP1 vs untreated [1, 11]: -2.011 log2

Substance: AKAP13
Difference (log2), untreated vs GFP (GFP-14-3-3β; [6]): 1.366 log2
Difference (log2), PP1 vs untreated [1, 7]: -0.6453 log2

Substance: MARK1
Difference (log2), untreated vs GFP (GFP-14-3-3β; [2]): 5.5786 log2
Difference (log2), PP1 vs untreated [1, 3]: -2.037 log2

Substance: MARK2
Difference (log2), untreated vs GFP (GFP-14-3-3β; [2]): 5.827 log2
Difference (log2), PP1 vs untreated [1, 3]: -2.124 log2

Second part, led by results:

Difference (log2), PP1 vs untreated [1, 5]: 2.11
Substance: FXR2
Difference (log2), untreated vs GFP (GFP-14-3-3β; [4]): -0.343

Difference (log2), PP1 vs untreated [1, 3]: -5.0278 log2
Substance: DOCK7
Difference (log2), untreated vs GFP (GFP-14-3-3β; [2]): 5.106 log2

Difference (log2), PP1 vs untreated [1, 7]: -0.6223 log2
Substance: NUP188
Difference (log2), untreated vs GFP (GFP-14-3-3β; [6]): 1.172 log2

Difference (log2), PP1 vs untreated [1, 9]: 0.1762 log2
Substance: ITPR3
Difference (log2), untreated vs GFP (GFP-14-3-3β; [8]): -0.007222 log2

Difference (log2), PP1 vs untreated [1, 7]: -0.1766 log2
Substance: SMN1
Difference (log2), untreated vs GFP (GFP-14-3-3β; [6]): 1.023 log2

Difference (log2), PP1 vs untreated [1, 11]: -1.778 log2
Substance: ARHGEF5
Difference (log2), untreated vs GFP (GFP-14-3-3β; [10]): 3.791 log2

Difference (log2), PP1 vs untreated [1, 3]: -2.199 log2
Substance: MAT2A
Difference (log2), untreated vs GFP (GFP-14-3-3β; [2]): 0.8108 log2

Difference (log2), PP1 vs untreated [1, 13]: 0.6235 log2
Substance: FAM98A
Difference (log2), untreated vs GFP (GFP-14-3-3β; [12]): 0.9941 log2

Difference (log2), PP1 vs untreated [1, 9]: 0.2079 log2
Substance: SYNCRIP
Difference (log2), untreated vs GFP (GFP-14-3-3β; [8]): 0.5804 log2

Difference (log2), PP1 vs untreated [1, 5]: 1.609
Substance: GEMIN5
Difference (log2), untreated vs GFP (GFP-14-3-3β; [4]): -0.2087

Difference (log2), PP1 vs untreated [1, 3]: -2.451 log2
Substance: DYNLL1
Difference (log2), untreated vs GFP (GFP-14-3-3β; [2]): 3.684 log2

Difference (log2), PP1 vs untreated [1, 7]: -0.7087 log2
Substance: DDX21
Difference (log2), untreated vs GFP (GFP-14-3-3β; [6]): 2.481 log2

Difference (log2), PP1 vs untreated [1, 3]: -2.154 log2
Substance: SRSF3
Difference (log2), untreated vs GFP (GFP-14-3-3β; [2]): 2.78 log2

Difference (log2), PP1 vs untreated [1, 7]: -0.7202 log2
Substance: EFTUD2
Difference (log2), untreated vs GFP (GFP-14-3-3β; [6]): 2.59 log2

Difference (log2), PP1 vs untreated [1, 3]: -3.95 log2
Substance: ARAF
Difference (log2), untreated vs GFP (GFP-14-3-3β; [2]): 3.851 log2
